This note sets out measurements from patent publication US9169241B2, “Quinolinyloxyphenylsulfonamides” (Max-Planck-Gesellschaft Zur Forderung der Wissenschaften …, priority 2009, dated 2015).

Molecules are shown by their SMILES.

Data set [1] deals with Hs578T. As to the kind of experiment: Cell vitality assay (ATP assay, CellTiter-Glo). The following applies: Homo sapiens, Hs-578T; HS578T cell line, 72 h; Table Ib; read-out: IC50 ATP-Assay HS578T after 72 h. In kind it is cell-based. Here is the method:
The CellTiter-Glo® Luminescent Cell Viability Assay (Promega Corporation. Madison, Wis., USA) is method a determining the number of viable cells in culture based on quantification of the ATP being present which is an indicator of metabolically active cells was used according to manufacturers protocol, In detail the assay was performed in a 96 well format were 1000 cells/well were incubated with indicated compound at concentration of 12.5 μM, 6.25 μM, 3.125 μM, 1.56 μM, 0.78 μM, 0.39 μM, 0.195 μM as well as DMSO control for 72 h in 100 μl cell culture medium. IC50 values were calculated as 50% of ATP amount compared to DMSO control.
Protocol for the CellTiter-Glo® Luminescent Cell Viability Assay • 1. Prepare opaque-walled multiwell plates with mammalian cells in culture medium, 100 μl per well for 96-well plates • 2. Prepare control wells containing medium without cells to obtain a value for background luminescence. • 3. Add the compound to be tested to experimental wells, and incubate according to culture protocol. • 4. Equilibrate the plate and its contents at room temperature for approximately 30 minutes. • 5. Add a volume of CellTiter-Glo® Reagent (Promega Corporation. Madison, Wis.) equal to the volume of cell culture medium present in each well. • 6. Mix contents for 2 minutes on an orbital shaker to induce cell lysis. • 7. Allow the plate to incubate at room temperature for 10 minutes to stabilize luminescent signal. • 8. Record luminescence on Microplate Luminometer LB96V (Berthold Tchnologies, Bad Wildbad, Germany). An integration time of 0.1 and 1 second per well
(In ATP-based viability assays light output follows the ATP content of the culture.)

Data set [2] deals with Hs578T. As to the kind of experiment: Wound healing migration assay. The data set is classed as cell-based. The note with it: Homo sapiens, Hs-578T; HS578T cell line; Table Ib. As to the method: This method mimics cell migration during wound healing in vivo. The basic steps involve creating a “wound” in a cell monolayer, capturing the images at the beginning and at regular intervals during cell migration to close the wound, and comparing the images to quantify the migration rate of the cells. In detail, 150000 cell/24 well have been seeded and allowed to form a monolayer overnight. Subsequently a “wound” or “scratch” has been performed with a 1000 μl pipette tip. The STDV of wound size is normally below 10% at time point t0. The assay was stopped by fixation with 0.05% Crystal violet/20% methanol when control scratches were closed. The assay was terminated between 48 h and 72 h depending on the migration potential of the indicated cell line. The “wounds” were visualized with a Zeiss Axiovert S100 microscope (Carl Zeiss UK, Welwyn Garden City, UK). The tested compounds were used at 12.5 μM, 6.25, 3.125 μM and DMSO control. IC50 values have been calculated as 50% wound size in between t0 and t48 or t72.

Data set [3] deals with Hs578T. As to the kind of experiment: Matrigel outgrowth assay/branching assay. The following applies: Homo sapiens, Hs-578T; HS578T cell line; Table Ib; read-out: Total branching inhibition in Matrigel HS578T. The data set is classed as cell-based. As to the method: The Matrigel outgrowth assay is based on the ability of tumor cell to penetrate a solid gel of extracellular matrix proteins mimicking the metastasis formation in vivo. While cells with low invasive potential appear as roundish cell or cell cluster, cells with high invasive potential penetrate the Matrigel and form polymorphic structures. In detail 65 μl of Matrigel matrix (Matrigel™ Matrix, BD Biosciences, Bedford, Mass., USA) with a concentration of 3 mg/ml have been polymerized in 96 well plates for 1 h at 37° C. Subsequently 5000 cell/well were seeded into each well containing cell culture medium and indicated compound with concentrations of 3.125 μM, 1.56 μM and 0.78 μM as well as DMSO control. After 48 h, 72 h and 96 h images of cell were taken on an inverted microscope using a 5× objective (Zeiss Axiovert S100 microscope Carl Zeiss UK, Welwyn Garden City, UK). Only compound concentrations were total branching inhibition was evident were accounted as positive. Method was used as previously described, with some modifications (Thompson E W, et al. Association of increased basement membrane invasiveness with absence of estrogen receptor and expression of vimentin in human breast cancer cell lines. J Cell Physiol 1992; 150:534-44).

With `COc1cc2c(Oc3cccc(NS(=O)(=O)c4ccsc4)c3)ccnc2cc1OCCCN1CCN(C)CC1` [Example 133, Thiophene-3-sulfonic acid (3-{6-methoxy-7-[3-(4-methyl-piperazin-1-yl)-propoxy]-quinolin-4-yloxy}-phenyl)-amide], the melting point (as a rule, the temperature of the solid-liquid transition) is 176 to 178 °C. For the same molecule, the IC50 in the data set with Hs578T [1] is at most 12.5 µM. Besides, the IC50 in the data set with Hs578T [2] was at most 12.5 µM. Further, the IC50 with Hs578T [3] is at most 10 µM.

Consider `COC(=O)c1sccc1S(=O)(=O)Nc1cccc(Oc2ccnc3cc(OCCCN4CCN(C)CC4)c(OC)cc23)c1` [Example 135, 3-(3-{6-Methoxy-7-[3-(4-methyl-piperazin-1-yl)-propoxy]-quinolin-4-yloxy}-phenylsulfamoyl)-thiophene-2-carboxylic acid methyl ester], for which the melting point is 84 to 86 °C. Also, the IC50 in the data set on Hs578T [1] is 12.5 to 50 µM. The IC50 with Hs578T [2] lay in the range of 12.5 to 50 µM. The IC50 in the data set with Hs578T [3] lay in the range of 10 to 25 µM.

With `COc1cc2c(Oc3cccc(NS(=O)(=O)c4ccco4)c3)ccnc2cc1OCCCN1CCN(C)CC1` [Example 137, Furan-2-sulfonic acid (3-{6-methoxy-7-[3-(4-methyl-piperazin-1-yl)-propoxy]-quinolin-4-yloxy}-phenyl)-amide], the melting point was in the range of 176 to 177 °C. Moreover, the IC50 in the data set on Hs578T [1] was 12.5 to 50 µM. For the same molecule, in the data set on Hs578T [2], the IC50 is 12.5 to 50 µM. Further, the IC50 in the data set on Hs578T [3] fell in the range of 10 to 25 µM.

`COc1cc2c(Oc3cccc(NS(=O)(=O)c4c(C)noc4C)c3)ccnc2cc1OCCCN1CCN(C)CC1` [Example 138, 3,5-Dimethyl-isoxazole-4-sulfonic acid (3-{6-methoxy-7-[3-(4-methyl-piperazin-1-yl)-propoxy]-quinolin-4-yloxy}-phenyl)-amide] had a melting point of 200 to 202 °C. Further, in the data set on Hs578T [1], the IC50 fell in the range of 12.5 to 50 µM. Moreover, in the data set on Hs578T [2], the IC50 was 12.5 to 50 µM. Further, the IC50 in the data set on Hs578T [3] was 10 to 25 µM.

In turn, `COc1cc2c(Oc3cccc(NS(=O)(=O)c4ccn(C)n4)c3)ccnc2cc1OCCCN1CCN(C)CC1` [Example 139, 1-Methyl-1H-pyrazole-3-sulfonic acid (3-{6-methoxy-7-[3-(4-methyl-piperazin-1-yl)-propoxy]-quinolin-4-yloxy}-phenyl)-amide] had a melting point of 87 to 89 °C. In the data set on Hs578T [1], the IC50 lay in the range of 12.5 to 50 µM. The IC50 in the data set on Hs578T [2] lay in the range of 12.5 to 50 µM. The IC50 with Hs578T [3] was in the range of 10 to 25 µM.

For `CCn1cc(S(=O)(=O)Nc2cccc(Oc3ccnc4cc(OCCCN5CCN(C)CC5)c(OC)cc34)c2)cn1` [Example 140, 1-Ethyl-1H-pyrazole-4-sulfonic acid (3-{6-methoxy-7-[3-(4-methyl-piperazin-1-yl)-propoxy]-quinolin-4-yloxy}-phenyl)-amide], the melting point was 87 to 90 °C. For the same molecule, the IC50 in the data set with Hs578T [1] was in the range of 12.5 to 50 µM. The IC50 in the data set on Hs578T [2] lay within 12.5 to 50 µM. Moreover, the IC50 in the data set with Hs578T [3] was 10 to 25 µM.

Regarding `COc1cc2c(Oc3cccc(NS(=O)(=O)c4c[nH]c(C)n4)c3)ccnc2cc1OCCCN1CCN(C)CC1` [Example 141, 2-Methyl-1H-imidazole-4-sulfonic acid (3-{6-methoxy-7-[3-(4-methyl-piperazin-1-yl)-propoxy]-quinolin-4-yloxy}-phenyl)-amide], the melting point fell in the range of 118 to 120 °C. Also, the IC50 in the data set on Hs578T [1] lay within 12.5 to 50 µM. This molecule registered an IC50 in the data set on Hs578T [2] of 12.5 to 50 µM. For the same molecule, in the data set with Hs578T [3], the IC50 is 10 to 25 µM.

In turn, `COc1cc2c(Oc3cccc(NS(=O)(=O)C4CC4)c3)ccnc2cc1OCCCN1CCN(C)CC1` [Example 142, Cyclopropanesulfonic acid (3-{6-methoxy-7-[3-(4-methyl-piperazin-1-yl)-propoxy]-quinolin-4-yloxy}-phenyl)-amide] had a melting point of 150 to 152 °C. For the same molecule, the IC50 in the data set with Hs578T [1] was 12.5 to 50 µM. The molecule also yielded an IC50 with Hs578T [2] of 12.5 to 50 µM. Moreover, the IC50 in the data set on Hs578T [3] is 10 to 25 µM.

`COc1cc2c(Oc3cccc(NS(=O)(=O)/C=C/c4ccccc4)c3)ccnc2cc1OCCCN1CCN(C)CC1` [Example 143, 2-Phenyl-ethenesulfonic acid (3-{6-methoxy-7-[3-(4-methyl-piperazin-1-yl)-propoxy]-quinolin-4-yloxy}-phenyl)-amide] showed a melting point of 85 to 87 °C. Besides, the IC50 in the data set with Hs578T [1] is at most 12.5 µM. Also, the IC50 with Hs578T [2] was at most 12.5 µM. For the same molecule, the IC50 with Hs578T [3] was at most 10 µM.

In the case of `COc1cc2c(Oc3ccc(NS(=O)(=O)c4c[nH]c(C)n4)cc3F)ccnc2cc1OCCCN1CCCCC1C` (stereo not drawn) [Example 149, 2-Methyl-1H-imidazole-4-sulfonic acid (3-fluoro-4-{6-methoxy-7-[3-(2-methyl-piperidin-1-yl)-propoxy]-quinolin-4-yloxy}-phenyl)-amide], the melting point is 219 to 220 °C. The IC50 with Hs578T [1] was 12.5 to 50 µM. The same molecule yielded an IC50 in the data set with Hs578T [2] of 12.5 to 50 µM. The IC50 with Hs578T [3] is 10 to 25 µM.

In the case of `COc1cc2c(Oc3ccc(NS(=O)(=O)c4ccn(C)n4)cc3F)ccnc2cc1OCCCN1CCCCC1C` (stereo not drawn) [Example 150, 1-Methyl-1H-pyrazole-3-sulfonic acid (3-fluoro-4-{6-methoxy-7-[3-(2-methyl-piperidin-1-yl)-propoxy]-quinolin-4-yloxy}-phenyl)-amide], the melting point fell in the range of 175 to 176 °C. In the data set with Hs578T [1], the IC50 was at most 12.5 µM. The same molecule returned an IC50 in the data set on Hs578T [2] of 12.5 to 50 µM. Also, the IC50 in the data set with Hs578T [3] lay within 10 to 25 µM.

For the molecule `COc1cc2c(Oc3ccc(NS(=O)(=O)c4c(C)nn(C)c4C)cc3F)ccnc2cc1OCCCN1CCCCC1` [Example 159, 1,3,5-Trimethyl-1H-pyrazole-4-sulfonic acid {3-fluoro-4-[6-methoxy-7-(3-piperidin-1-yl-propoxy)-quinolin-4-yloxy]-phenyl}-amide], the melting point was in the range of 96 to 98 °C. Besides, the IC50 in the data set with Hs578T [1] is at most 12.5 µM. Moreover, the IC50 with Hs578T [2] was in the range of 12.5 to 50 µM. Moreover, the IC50 with Hs578T [3] lay within 10 to 25 µM.

Regarding `COc1cc2c(Oc3ccc(NS(=O)(=O)c4c(C)nn(C)c4C)cc3F)ccnc2cc1OCCCN1CCC(C)CC1` [Example 160, 1,3,5-Trimethyl-1H-pyrazole-4-sulfonic acid (3-fluoro-4-{6-methoxy-7-[3-(4-methyl-piperidin-1-yl)-propoxy]-quinolin-4-yloxy}-phenyl)-amide], the melting point was in the range of 88 to 90 °C. In addition, the IC50 with Hs578T [1] is at most 12.5 µM. Further, in the data set with Hs578T [2], the IC50 was at most 12.5 µM. The IC50 in the data set on Hs578T [3] was 10 to 25 µM.

`COc1cc2c(Oc3ccc(NS(=O)(=O)c4c(C)nn(C)c4C)cc3F)ccnc2cc1OCCCN1CCOCC1` [Example 161, 1,3,5-Trimethyl-1H-pyrazole-4-sulfonic acid {3-fluoro-4-[6-methoxy-7-(3-morpholin-4-yl-propoxy)-quinolin-4-yloxy]-phenyl}-amide]: the melting point is 163 to 164 °C. In the data set with Hs578T [1], the IC50 was at most 12.5 µM. In the data set on Hs578T [2], the IC50 lay in the range of 12.5 to 50 µM. The IC50 in the data set with Hs578T [3] was in the range of 10 to 25 µM.

The molecule `COc1cc2c(Oc3ccc(NS(=O)(=O)c4c(C)nn(C)c4C)cc3F)ccnc2cc1OCCCN1CCN(C)CC1` [Example 162, 1,3,5-Trimethyl-1H-pyrazole-4-sulfonic acid (3-fluoro-4-{6-methoxy-7-[3-(4-methyl-piperazin-1-yl)-propoxy]-quinolin-4-yloxy}-phenyl)-amide] came in with a melting point of 80 to 81 °C. The IC50 in the data set on Hs578T [1] is at most 12.5 µM. For the same molecule, in the data set with Hs578T [2], the IC50 was 12.5 to 50 µM. In addition, the IC50 in the data set with Hs578T [3] was in the range of 10 to 25 µM.
